Read-outs that look alike come from different tables or passages of the source.
Tested on: T. brucei lysate proteins
Format: binding, Trypanosoma brucei

Nc1nc2cccc(-c3ccccc3)c2n1Cc1ccc(Cl)c(Cl)c1 [compound 3]
fold change - vehicle control (protein TB927.7.5340 HY[…], CONSERVED): 0.45 | fold change - vehicle control (protein TB927.7.7430 ATP SYNTHASE ALPHA CHAIN, MIT[…]): 0.95 | fold change - vehicle control (protein TB927.8.1990 PEROXIDOXIN): 0.95 | fold change - vehicle control (protein TB927.8.4720 AMINO ACID TRANSPORTER, PUTATIVE): 0.82 | fold change - vehicle control (protein TB927.8.890 SMALL GTP-BINDING PROTEIN RAB1, PUTATIVE): 0.96 | fold change (relative to vehicle control = 1, protein TB09.160.2550 RIBOSOMAL PROTEIN S7, PUTATIVE): 0.97 | fold change (relative to vehicle control = 1, protein TB09.160.3270 ATP-DEPENDENT DEAD BOX HELICASE, PUTATIVE): 1 | fold change (relative to vehicle control = 1, protein TB09.160.4250 TR[…]): 0.95 | fold change (relative to vehicle control = 1, protein TB09.211.3540 GLYCEROL KINASE, GLYCOSOMAL): 0.92 | fold change (relative to vehicle control = 1, protein TB11.01.1270 NUCLEIC ACID BINDING PROTEIN, PUTATIVE): 0.99 | fold change (relative to vehicle control = 1, protein TB11.02.1135 DYNEIN LIGHT CHAIN, PUTATIVE): 1 | fold change (relative to vehicle control = 1, protein TB11.02.2960 MIT[…] PROTEIN, PUTATIVE): 0.96 | fold change (relative to vehicle control = 1, protein TB11.02.4700 14-3-3 PROTEIN): 0.87 | fold change (relative to vehicle control = 1, protein TB11.03.0815 DYNEIN LIGHT CHAIN): 0.99 | fold change (relative to vehicle control = 1, protein TB427TMP.01.0480 HY[…], CONSERVED): 0.95 | fold change (relative to vehicle control = 1, protein TB427TMP.01.1400 GLYCYL-TRNA SYNTHETASE, PUTATIVE): 0.9 | fold change (relative to vehicle control = 1, protein TB427TMP.01.1680 POLYUBIQUITIN, PUTATIVE): 0.93 | fold change (relative to vehicle control = 1, protein TB427TMP.01.1830 HY[…], CONSERVED): 1 | fold change (relative to vehicle control = 1, protein TB427TMP.01.3370 […] PROTEIN, PUTATIVE): 0.94 | fold change (relative to vehicle control = 1, protein TB427TMP.01.6880 CYTOSOLIC COAT PROTEIN, PUTATIVE): 0.81 | fold change (relative to vehicle control = 1, protein TB427TMP.01.7530 HY[…], CONSERVED): 0.93 | fold change (relative to vehicle control = 1, protein TB427TMP.02.1120 ADENYL[…], PUTATIVE): 0.99 | fold change (relative to vehicle control = 1, protein TB427TMP.02.1460 HY[…], CONSERVED): 0.95 | fold change (relative to vehicle control = 1, protein TB427TMP.02.2120 NUCLEOPORIN 48): 0.94 | fold change (relative to vehicle control = 1, protein TB427TMP.02.2970 KINESIN, PUTATIVE): 0.91 | fold change (relative to vehicle control = 1, protein TB427TMP.02.3120 MALIC ENZYME, PUTATIVE): 0.82 | fold change (relative to vehicle control = 1, protein TB427TMP.02.4550 HY[…], CONSERVED): 1 | fold change (relative to vehicle control = 1, protein TB427TMP.02.5450 GLUCOSE-REGULATED PROTEIN 78, PUTATIVE): 0.93 | fold change (relative to vehicle control = 1, protein TB427TMP.03.0090 RIBOKINASE, PUTATIVE): 0.84 | fold change (relative to vehicle control = 1, protein TB427TMP.160.4770 PROTEIN KINASE, PUTATIVE): 0.93 | fold change (relative to vehicle control = 1, protein TB427TMP.160.4910 FLAVOPROTEIN MONOOXYGENASE, PUTATIVE): 0.97 | fold change (relative to vehicle control = 1, protein TB427TMP.18.0005 HY[…], CONSERVED): 0.93 | fold change (relative to vehicle control = 1, protein TB427TMP.22.0004 HY[…], CONSERVED): 0.97 | fold change (relative to vehicle control = 1, protein TB427TMP.39.0006 T[…] EIF2B DELTA SUBUNIT, PUTATIVE): 0.9 | fold change (relative to vehicle control = 1, protein TB427.01.4050 PROTEIN P[…] EF-HAND DOMAINS (PPEF)): 0.93 | fold change (relative to vehicle control = 1, protein TB427.02.1170 RETRO[…] SPOT (RHS) PROTEIN, PUTATIVE): 0.96 | fold change (relative to vehicle control = 1, protein TB427.02.6220 ADENOSINE TRANSPORTER 2, PUTATIVE): 0.98 | fold change (relative to vehicle control = 1, protein TB427.03.3160 POLY(A) POLYMERASE): 0.77 | fold change (relative to vehicle control = 1, protein TB427.03.3560 HY[…], CONSERVED): 0.83 | fold change (relative to vehicle control = 1, protein TB427.03.5420 PROTEIN TRANSPORT PROTEIN SEC24): 0.9 | fold change (relative to vehicle control = 1, protein TB427.04.1510 PHOSPHOLIPID-TRA[…], PUTATIVE): 0.86 | fold change (relative to vehicle control = 1, protein TB427.05.2320 HY[…], CONSERVED): 0.8 | fold change (relative to vehicle control = 1, protein TB427.05.300 THYMINE-7-HYDROXYLASE, PUTATIVE): 0.82 | fold change (relative to vehicle control = 1, protein TB427.05.4530 FATTY ACID ELONGASE, PUTATIVE): 0.77 | fold change (relative to vehicle control = 1, protein TB427.05.520 STOMATIN-LIKE PROTEIN, PUTATIVE): 1 | fold change (relative to vehicle control = 1, protein TB427.06.2550 RNA-BINDING PROTEIN, PUTATIVE): 1.2 | fold change (relative to vehicle control = 1, protein TB427.06.3650 ADP-RI[…], PUTATIVE): 0.91 | fold change (relative to vehicle control = 1, protein TB427.06.3860 HY[…], CONSERVED): 0.97 | fold change (relative to vehicle control = 1, protein TB427.07.2340 40S RIBOSOMAL PROTEIN S15, PUTATIVE): 0.87 | fold change (relative to vehicle control = 1, protein TB427.07.2570 MRNA […], PUTATIVE): 0.63 | fold change (relative to vehicle control = 1, protein TB427.07.4180 FATTY ACID ELONGASE, PUTATIVE): 0.92 | fold change (relative to vehicle control = 1, protein TB427.07.7500 THYMINE-7-HYDROXYLASE, PUTATIVE): 0.88 | fold change (relative to vehicle control = 1, protein TB427.08.3150 T-COMPLEX PROTEIN 1, GAMMA SUBUNIT, PUTATIVE): 0.99 | fold change (relative to vehicle control = 1, protein TB427.08.3490 HY[…], CONSERVED): 0.95 | fold change (relative to vehicle control = 1, protein TB427.08.5460 FLAGELLAR CALCIUM-BINDING PROTEIN): 0.72 | fold change (relative to vehicle control = 1, protein TB427.08.6110 HY[…], CONSERVED): 0.82 | fold change (relative to vehicle control = 1, protein TB427.10.11930 NAD OR NADP DEPENDENT OXIDOREDUCTASE, PUTATIVE): 0.78 | fold change (relative to vehicle control = 1, protein TB427.10.12510 P-TYPE H+-ATPASE, PUTATIVE): 1 | fold change (relative to vehicle control = 1, protein TB427.10.13110 DYNEIN LIGHT CHAIN, PUTATIVE): 0.88 | fold change (relative to vehicle control = 1, protein TB427.10.13880 HY[…], CONSERVED): 0.88 | fold change (relative to vehicle control = 1, protein TB427.10.14140 PYRUVATE KINASE 1): 0.93 | fold change (relative to vehicle control = 1, protein TB427.10.14910 SA[…] GLYCOPROTEIN, PUTATIVE): 0.83 | fold change (relative to vehicle control = 1, protein TB427.10.15180 […] PROTEIN, PUTATIVE): 1.2 | fold change (relative to vehicle control = 1, protein TB427.10.2350 PYRUVATE DEH[…] E3 BINDING PROTEIN, PUTATIVE): 1 | fold change (relative to vehicle control = 1, protein TB427.10.4940 NUCLEAR DBF2-RELATED KINASE): 0.8 | fold change (relative to vehicle control = 1, protein TB427.10.7630 HY[…], CONSERVED): 0.97 | fold change (relative to vehicle control = 1, protein TB427.10.9800 60S RIBOSOMAL PROTEIN L22): 0.82 | fold change (relative to vehicle control = 1, protein TB927.10.13360 […] TU, PUTATIVE): 0.96 | fold change (relative to vehicle control = 1, protein TB927.1.2330 BETA TUBULIN): 0.96 | fold change (relative to vehicle control = 1, protein TB927.1.2400 ALPHA TUBULIN): 0.96 | fold change (relative to vehicle control = 1, protein TB927.10.3280 60S RIBOSOMAL PROTEINS L38, PUTATIVE): 0.99 | fold change (relative to vehicle control = 1, protein TB927.10.4180 TFIIF-[…] PHOSPHATASE, PUTATIVE): 0.97 | fold change (relative to vehicle control = 1, protein TB927.10.4690 DYNEIN LIGHT CHAIN, PUTATIVE): 0.9 | fold change (relative to vehicle control = 1, protein TB927.10.5330 40S RIBOSOMAL PROTEIN S18, PUTATIVE): 0.74 | fold change (relative to vehicle control = 1, protein TB927.10.6670 DYNEIN LIGHT CHAIN, PUTATIVE): 0.92 | fold change (relative to vehicle control = 1, protein TB927.2.2440 […]-ATPASE SUBUNIT 6): 2.27 | fold change (relative to vehicle control = 1, protein TB927.3.1120 GTP-BINDING NUCLEAR PROTEIN RTB2, PUTATIVE): 0.9 | fold change (relative to vehicle control = 1, protein TB927.3.3490 HIGH MOBILITY GROUP PROTEIN, PUTATIVE): 0.89 | fold change (relative to vehicle control = 1, protein TB927.3.4360 40S RIBOSOMAL PROTEIN S15A, PUTATIVE): 1.3 | fold change (relative to vehicle control = 1, protein TB927.4.4650 […] SYNTHASE, PUTATIVE): 0.72 | fold change (relative to vehicle control = 1, protein TB927.5.1930 HY[…], CONSERVED): 0.83 | fold change (relative to vehicle control = 1, protein TB927.6.4140 PAR[…] COMPONENT, PUTATIVE): 0.9 | fold change (relative to vehicle control = 1, protein TB927.7.2500 […] SUBUNIT 1): 0.91 | fold change (relative to vehicle control = 1, protein TB927.7.4500 HY[…], CONSERVED): 0.87 | fold change (relative to vehicle control = 1, protein TB927.8.1510 ATP-DEPENDENT DEAD/H RNA HELICASE, PUTATIVE): 1 | fold change (vs vehicle control, protein TB09.160.3710 PRO[…] NUCLEAR ANTIGEN (PCNA), PUTATIVE): 0.94 | fold change (vs vehicle control, protein TB11.01.4370 HY[…], CONSERVED): 0.98 | fold change (vs vehicle control, protein TB427TMP.01.8510 T-COMPLEX PROTEIN 1, ALPHA SUBUNIT, PUTATIVE): 0.9 | fold change (vs vehicle control, protein TB427.01.1670 HY[…], CONSERVED): 0.93 | fold change (vs vehicle control, protein TB427.03.4750 AMINOPEPTIDASE, PUTATIVE): 0.96 | fold change (vs vehicle control, protein TB427.05.3170 RIBOSE-PHOSPHATE PYROPHOSPHOKINASE, PUTATIVE): 0.92 | fold change (vs vehicle control, protein TB427.06.1070 HY[…], CONSERVED): 0.95 | fold change (vs vehicle control, protein TB427.06.4890 S-ADENOSYL[…], PUTATIVE): 0.98 | fold change (vs vehicle control, protein TB427.08.3660 PROTEIN TRANSPORT PROTEIN SEC23): 0.95 | fold change (vs vehicle control, protein TB427.10.10980 HEAT SHOCK PROTEIN 83): 0.99 | fold change (vs vehicle control, protein TB427.10.11760 PUMILIO/PUF RNA BINDING PROTEIN 6): 0.91 | fold change (vs vehicle control, protein TB427.10.14550 ATP-DEPENDENT DEAD/H RNA HELICASE, PUTATIVE): 0.99 | fold change (vs vehicle control, protein TB427.10.2290 CHAPERONE PROTEIN DNAJ, PUTATIVE): 0.93 | fold change (vs vehicle control, protein TB927.5.1630 HY[…], CONSERVED): 0.91 | fold change (vs vehicle control, protein TB927.6.4980 40S RIBOSOMAL PROTEIN S14): 1.1

Source: article PMC6199744, “Development of Chemical Proteomics for the Folateome and Analysis of the Kinetoplastid Folateome” (ACS Infectious Diseases, 2018)
